ChEMBL document CHEMBL3351597, “Synthesis and activity of new triphenylphosphonium derivatives of betulin and betulinic acid against Schistosoma mansoni in vitro and in vivo” (Bioorg Med Chem, 2014)
Active and inactive are the calls of the source. The rule behind the calls is not given here.

What was measured:
Schistosoma mansoni [1] = experiment: Antischistosomal activity against newly transformed Schistosoma mansoni assessed as decrease in viability after 72 hrs; type: functional, organism-based
Schistosoma mansoni [2] = experiment: Antischistosomal activity against newly transformed Schistosoma mansoni assessed as death at 8.33 microg/ml after 72 hrs; type: functional, organism-based
Schistosoma mansoni [3] = experiment: Antischistosomal activity against Schistosoma mansoni infected in NMRI mouse assessed as mouse cured at 400 mg/kg, po treated after 49 days of infection measured after 21 days post treatment; type: functional, organism-based; parameters: dose 400 mg/kg
Schistosoma mansoni [4] = experiment: Antischistosomal activity against Schistosoma mansoni infected in NMRI mouse assessed as reduction of female worm burden at 400 mg/kg, po treated after 49 days of infection measured after 21 days post treatment; type: functional
Schistosoma mansoni [5] = experiment: Antischistosomal activity against Schistosoma mansoni infected in NMRI mouse assessed as reduction of total worm burden at 400 mg/kg, po treated after 49 days of infection measured after 21 days post treatment; type: functional
L6 = experiment: Cytotoxicity against rat L6 cells after 24 hrs by Resazurin dye; type: cell-based; conditions: L6, 24 h
Schistosoma mansoni [6] = experiment: Antischistosomal activity against newly transformed Schistosoma mansoni assessed as death at 2.78 microg/ml after 72 hrs; type: functional, organism-based

Row | SMILES | IC50 (Schistosoma mansoni [1]) [µg/mL] | Activity (Schistosoma mansoni [1]) | Activity (Schistosoma mansoni [2]) | also measured
1 | COC(=O)[C@]12CC[C@@H](C(C)C)[C@@H]1[C@H]1CC[C@@H]3[C@@]4(C)C[C@H](CCC[P+](c5ccccc5)(c5ccccc5)c5ccccc5)[C@@H](O)C(C)(C)[C@@H]4CC[C@@]3(C)[C@]1(C)CC2 | – | Active | – | –
2 | CC(=O)O[C@H]1[C@@H](CCC[P+](c2ccccc2)(c2ccccc2)c2ccccc2)C[C@]2(C)[C@H]3CC[C@@H]4[C@H]5[C@H](C(C)C)CC[C@]5(C(=O)OCc5ccccc5)CC[C@@]4(C)[C@]3(C)CC[C@H]2C1(C)C | – | Active | – | –
3 | COC(=O)[C@]12CC[C@@H](C(C)C)[C@@H]1[C@H]1CC[C@@H]3[C@@]4(C)C[C@H](CCC[P+](c5ccccc5)(c5ccccc5)c5ccccc5)[C@H](O)C(C)(C)[C@@H]4CC[C@@]3(C)[C@]1(C)CC2 | – | Active | – | –
4 | CC(=O)O[C@H]1[C@@H](CCC[P+](c2ccccc2)(c2ccccc2)c2ccccc2)C[C@]2(C)[C@H]3CC[C@@H]4[C@H]5[C@H](C(C)C)CC[C@]5(C(=O)O)CC[C@@]4(C)[C@]3(C)CC[C@H]2C1(C)C | – | Active | – | –

Second part, led by results:

Row | IC50 (Schistosoma mansoni [1]) [µg/mL] | SMILES | Activity (Schistosoma mansoni [1]) | Activity (Schistosoma mansoni [2]) | also measured
5 | 1.37 | COC(=O)[C@]12CC[C@@H](C(C)C)[C@@H]1[C@H]1CC[C@@H]3[C@@]4(C)C[C@H](CCC[P+](c5ccccc5)(c5ccccc5)c5ccccc5)[C@@H](OC(C)=O)C(C)(C)[C@@H]4CC[C@@]3(C)[C@]1(C)CC2.[Br-] | – | Active | –
6 | 0.64 | C=C(C[P+](c1ccccc1)(c1ccccc1)c1ccccc1)[C@@H]1CC[C@]2(COC(C)=O)CC[C@]3(C)[C@H](CC[C@@H]4[C@@]5(C)CC[C@H](OC(C)=O)C(C)(C)[C@@H]5CC[C@]43C)[C@@H]12.[Br-] | – | Active | Activity (Schistosoma mansoni [3]): inactive; inhibition in vivo at 400 mg/kg (Schistosoma mansoni [4]): 20.3%; inhibition in vivo at 400 mg/kg (Schistosoma mansoni [5]): 22.2%; IC50 (L6): 0.64 µg/mL; Activity (Schistosoma mansoni [6]): Active
7 | 6.35 | COC(=O)[C@]12CC[C@@H](C(C)CI)[C@@H]1[C@H]1CC[C@@H]3[C@@]4(C)C[C@H](CCC[P+](c5ccccc5)(c5ccccc5)c5ccccc5)[C@H](OC(C)=O)C(C)(C)[C@@H]4CC[C@@]3(C)[C@]1(C)CC2.[I-] (stereo partly drawn) | – | – | IC50 (L6): 1.65 µg/mL
8 | 0.76 | C=C(C[P+](c1ccccc1)(c1ccccc1)c1ccccc1)[C@@H]1CC[C@]2(C(=O)OC)CC[C@]3(C)[C@H](CC[C@@H]4[C@@]5(C)CC[C@H](OC(C)=O)C(C)(C)[C@@H]5CC[C@]43C)[C@@H]12.[Br-] | – | Active | Activity (Schistosoma mansoni [3]): inactive; inhibition in vivo at 400 mg/kg (Schistosoma mansoni [4]): 24.8%; inhibition in vivo at 400 mg/kg (Schistosoma mansoni [5]): 21.9%; Activity (Schistosoma mansoni [6]): Active
9 | 1.46 | COC(=O)[C@]12CC[C@@H](C(C)C)[C@@H]1[C@H]1CC[C@@H]3[C@@]4(C)C[C@H](CCC[P+](c5ccccc5)(c5ccccc5)c5ccccc5)[C@H](OC(C)=O)C(C)(C)[C@@H]4CC[C@@]3(C)[C@]1(C)CC2.[Br-] | – | Active | –
